Experimental data taken from patent US12227494B2, “Polymorphisms of HM30181 mesylate” (ATHENEX R&D, LLC, priority 2020, dated 2025).

Key:
Assay type in all cases: physicochemical
[1] = Estimated solubility of HM30181 mesylate Type A starting material in solvents (stepwise solvent addition); settings: for solubility: thermodynamic from solid
[2] = Dynamic Vapor Sorption (DVS) with XRPD post-DVS; settings: for Hygroscopicity by DVS (in words) / Water absorbed by DVS: 0-95% RH
Method: (§1) XRPD was performed using a Panalytical X'Pert3™ Powder XRPD and on a Si zero-background holder. The 2θ position was calibrated against a Panalytical™ 640 Si powder standard. Details of XRPD used in the experiments are listed below in Table 20.
Dynamic Vapor Sorption (DVS) was measured using a SMS (Surface Measurement Systems™) DVS Intrinsic. Parameters for DVS test are listed below in Table 24.

[3] = XRPD of polymorphs after air-drying or vacuum-drying (solid form stability)
Method: Large scale studies were performed with HM30181 mesylate Type A starting material on a 200 mg scale as described below. Solids were isolated by vacuum filtration. The wet cakes from filtration from DMA, DMF, and NMP slurries were washed with 1 mL to 2 mL methanol to remove solvents. […]
as §1

[4] = 1H-NMR check for disproportionation or degradation; settings: slurry in DMF at 150° C., 5 days
Source text: At large scale, a slurry of HM30181 mesylate Type A starting material in methanol at ambient conditions generated a mixture of HM30181 mesylate Type B and HM30181 mesylate Type A after 9 days (see FIG. 32). After 14 days, the slurry in methanol generated a HM30181 mesylate Type N polymorph. […] A scaled-up slurry of HM30181 mesylate Type A starting material in DMA yielded HM30181 mesylate Type E after 6 days (see FIG. 35). […] A scaled-up slurry of HM30181 mesylate Type A starting material in DMF at 50° C. yielded HM30181 mesylate Type F rather than the expected HM30181 mesylate Type G after 9 days (see FIG. 36). […] This slurry was heated in an attempt to generate HM30181 mesylate Type G. A scaled-up slurry of HM30181 mesylate Type A starting material in DMF at 100° C. yielded HM30181 mesylate Type F after 2 days (see FIG. 37). A scaled-up slurry of HM30181 mesylate Type A starting material in DMF at 150° C. yielded a previously unobserved XRPD pattern after 5 days (see FIG. 37).
By 1H-NMR, HM30181 mesylate Type E contained DMA, HM30181 mesylate Type F contains DMF, and HM30181 mesylate Type N contains MeOH.
Proton NMR were obtained using a Varian 200M™ NMR in deuterated DMSO (DMSO-d6).

COc1cc2c(cc1OC)CN(CCc1ccc(-n3nnc(-c4cc(OC)c(OC)cc4NC(=O)c4cc(=O)c5ccccc5o4)n3)cc1)CC2.CS(=O)(=O)O [HM30181 mesylate Type A, HM30181 mesylate]
solubility ([1]; organic solvent or mixture, solvent 1,4-Dioxane): < 1000 µg/mL
solubility ([1]; organic solvent or mixture, solvent 2-MeTHF): < 1000 µg/mL
solubility ([1]; organic solvent or mixture, solvent ACN): < 1000 µg/mL
solubility ([1]; organic solvent or mixture, solvent Acetone): < 1000 µg/mL
solubility ([1]; organic solvent or mixture, solvent CHCl3): 5000 to 6700 µg/mL
solubility ([1]; organic solvent or mixture, solvent Cumene): < 1000 µg/mL
solubility ([1]; organic solvent or mixture, solvent Cyclohexane): < 1000 µg/mL
solubility ([1]; organic solvent or mixture, solvent DCM): < 1000 µg/mL
solubility ([1]; organic solvent or mixture, solvent DMA): 3200 to 4800 µg/mL
solubility ([1]; organic solvent or mixture, solvent DMSO): 22000 to 44000 µg/mL
solubility ([1]; organic solvent or mixture, solvent EtOAc): < 900 µg/mL
solubility ([1]; organic solvent or mixture, solvent EtOH): < 900 µg/mL
solubility ([1]; organic solvent or mixture, solvent IPA): < 1000 µg/mL
solubility ([1]; organic solvent or mixture, solvent IPOAc): < 1000 µg/mL
solubility ([1]; organic solvent or mixture, solvent MEK): < 1000 µg/mL
solubility ([1]; organic solvent or mixture, solvent MIBK): < 1000 µg/mL
solubility ([1]; organic solvent or mixture, solvent MTBE): < 1000 µg/mL
solubility ([1]; organic solvent or mixture, solvent MeOH): 1700 to 2000 µg/mL
solubility ([1]; organic solvent or mixture, solvent NMP): 4800 to 6300 µg/mL
solubility ([1]; organic solvent or mixture, solvent T-BuOH): < 1000 µg/mL
solubility ([1]; organic solvent or mixture, solvent THF): < 1000 µg/mL
solubility ([1]; organic solvent or mixture, solvent Toluene): < 1000 µg/mL
solubility ([1]; organic solvent or mixture, solvent n-Heptane): < 1000 µg/mL
solubility ([1]; organic solvent or mixture, solvent n-Propanol): < 1000 µg/mL
solubility ([1]; organic solvent or mixture, solvent n-Propyl acetate): < 1000 µg/mL
Dissolved after heating to 50° C. for 2 hours? ([1]; solvent 1,4-Dioxane): No
Dissolved after heating to 50° C. for 2 hours? ([1]; solvent 2-MeTHF): No
Dissolved after heating to 50° C. for 2 hours? ([1]; solvent ACN): Yes
Dissolved after heating to 50° C. for 2 hours? ([1]; solvent Acetone): No
Dissolved after heating to 50° C. for 2 hours? ([1]; solvent Cumene): No
Dissolved after heating to 50° C. for 2 hours? ([1]; solvent Cyclohexane): No
Dissolved after heating to 50° C. for 2 hours? ([1]; solvent DCM): Yes
Dissolved after heating to 50° C. for 2 hours? ([1]; solvent EtOAc): No
Dissolved after heating to 50° C. for 2 hours? ([1]; solvent EtOH): Almost
Dissolved after heating to 50° C. for 2 hours? ([1]; solvent H2O): No
Dissolved after heating to 50° C. for 2 hours? ([1]; solvent IPA): No
Dissolved after heating to 50° C. for 2 hours? ([1]; solvent IPOAc): No
Dissolved after heating to 50° C. for 2 hours? ([1]; solvent MEK): No
Dissolved after heating to 50° C. for 2 hours? ([1]; solvent MIBK): No
Dissolved after heating to 50° C. for 2 hours? ([1]; solvent MTBE): No
Dissolved after heating to 50° C. for 2 hours? ([1]; solvent T-BuOH): No
Dissolved after heating to 50° C. for 2 hours? ([1]; solvent THF): No
Dissolved after heating to 50° C. for 2 hours? ([1]; solvent Toluene): No
Dissolved after heating to 50° C. for 2 hours? ([1]; solvent n-Heptane): No
Dissolved after heating to 50° C. for 2 hours? ([1]; solvent n-Propanol): No
Dissolved after heating to 50° C. for 2 hours? ([1]; solvent n-Propyl acetate): No
solubility ([1]; water, solvent H2O): < 1000 µg/mL
Hygroscopicity by DVS (in words) [2]: hygroscopic
Water absorbed by DVS [2]: 2.26%
Hygroscopicity by DVS (in words) ([2]; listed as Type A): Monohydrate (hygroscopic
Water absorbed by DVS ([2]; listed as Type A): to 2.26% at 95% RH)
XRPD pattern post-DVS ([2]; after DVS 0-95% RH): no change in XRPD pattern observed
XRPD (air-dry) ([3]; air-dried solids from Crash cooling 50° C.-->−20° C., ACN 10 mL, Exp. 6007235-17-C12): Type C
XRPD (air-dry) ([3]; air-dried solids from Slow Cooling 50° C.-->4° C., ACN 10 mL, Exp. 6007235-17-C4): Type C
XRPD (air-dry) ([3]; air-dried solids from Slow Cooling 50° C.-->4° C., DCM 10 mL, Exp. 6007235-17-C5): Type C
Chemical stability in DMF slurry by 1H-NMR [4]: resulted in degradation
